Laboratory results reported in US10857112B2, “Small molecule inhibitors of RNA binding motif (RBM) proteins for the treatment of acute cellular injury” (University of Pittsburgh—Of the Commonwealth System of …, priority 2012, dated 2020).

Columns and labels:
in vitro = conditions: rat, decrease in neuronal viability, 250 nM STS alone
Procedure: (§1) At D.I.V. 11, ½ media was collected (conditioned media) and mixed with an equal volume fresh neurobasal media (to make the 24 hour treatment media). STS was prepared at the desired concentration in treatment media, with or without experimental drugs (AQ2S or LY294002). The remaining growth maintenance media was replaced with 100 μL, of treatment media per well of a 96-well plate (or 2 mL for a six-well plate) for 24 hours.
(§2) The LDH Cytotoxicity Assay Kit II was purchased from Abcam (Cambridge, Mass., USA). Neurons were cultured in 96-well format and subjected to STS injury ±AQ2S for 24 hours (in 100 μL, total media volume). At 23 hours maximum LDH release (positive control) was prepared by adding 10 μL, cell lysis reagent directly to a few non-injured wells (i.e., no STS or AQ2S). At the end of the 24 hour injury period, 80 μL, of media was transferred to a new 96-well plate. Plates were spun at ˜500 g for 5 minutes. 10 μL, of cell culture treatment media was added to a new black-walled plate and advanced WST detection reagent added. The mix was incubated for ˜15 minutes and absorbance measured (OD 450 nm). Fresh culture media was used as a negative control. Cytotoxicity was calculated using the standard formula: cytotoxicity %=(sample LDH−negative-control LDH)/(maximum LDH release−negative-control LDH)×100.

[1] = tested on: primary rat cortical neurons; test: STS injury, neuronal viability and cytotoxicity
Procedure: as §1, §2

[2] = tested on: primary rat cortical neurons; test: H2O2 injury, neuronal viability 24 h (CellTiter-Blue); conditions: 40 μM H2O2
[3] = biological target: T1, recombinant active caspase-3 (Homo sapiens, UniProt P42574); test: In vitro cell-free caspase-3 drug screening assay (DEVD-AFC); assay type: biochemical
T1 construct: The reaction mixture was combined with recombinant active caspase-3 and a DEVD-AFC probe; purchased PromoKine (Heidelberg, Germany)
T1 sequence (P42574 29-175 limits assumed): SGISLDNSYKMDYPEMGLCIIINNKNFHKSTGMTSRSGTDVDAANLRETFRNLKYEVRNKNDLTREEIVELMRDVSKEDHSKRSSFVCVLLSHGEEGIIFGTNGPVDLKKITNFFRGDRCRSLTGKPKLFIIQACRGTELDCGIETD
T1 sequence (P42574 176-277 limits assumed): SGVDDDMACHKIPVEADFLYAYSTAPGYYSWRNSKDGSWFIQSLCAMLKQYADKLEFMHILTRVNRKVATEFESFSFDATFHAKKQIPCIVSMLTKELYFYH
Procedure: An in vitro caspase drug screening kit was purchased from PromoKine (Heidelberg, Germany), and used according to the manufacturer's instructions. Briefly, all drugs were dissolved in DMSO and diluted in double-distilled water to desired concentration. The reaction mixture was combined with recombinant active caspase-3 and a DEVD-AFC probe. Active caspase-3 cleaves the DEVD-recognition sequence and releases fluorescent AFC. The amount of AFC detected is a measure of caspase-3 activity. Reactions were prepared in black-walled 96-well plates, incubated at 37° C., and AFC release measured with an AFC filter (Ex: 405 nm, Em: 495-505 nM) on a GLOMax-Multi Microplate Reader (Promega).

AKT = test: Western blot of AKT activation (pAKT473); assay type: cell-based, rat; conditions: 50 μM; baseline and 250 nM STS 6 hours
Procedure: AKT is a key pro-survival kinase that is dysregulated by acute brain injury. Many diverse therapies used to prevent neuronal death activate AKT, including small molecules, endogenously derived survival proteins, and other non-pharmacology based treatments like therapeutic hypothermia. To further elucidate the mechanisms of AQ2S-mediated neuroprotection, the level of activated (phosphorylated) AKT was measured by western blot.
Neurons used for Western blot analysis for grown in 6-well plates. Briefly, neurons were treated with experimental compounds for the indicated time/conditions. At the end of each experiment, neurons were washed in ice cold PBS and harvested in 65 μL RIPA buffer containing protease inhibitors, phosphatase inhibitors, and EDTA. Extracts were collected in 0.5 mL tubes and sonicated for 20-30 seconds. Cell extracts were then spun at 4° C./16,000 g/10 minutes and stored at −80° C. until use. Frozen extracts were thawed on ice and protein concentration measured using the BCA assay (PIERCE). […] of sample protein was loaded per well of a 7.5% SDS precast gel (Biorad), and run for 30 minutes to 1 hour at 200 V. Kaleidoscope protein standards (Biorad) were run parallel to neuron extracts. Proteins were then transferred to PDVF membranes (run at 100 V/4° C./1.5 hours). PDVF membranes were washed once in tris buffered saline (TBS) and blocked for 1 hour in tris buffered saline/tween-20 with 7.5% nonfat milk (TBS-T/milk). Blots were incubated overnight at 4° C. with primary antibodies in TBS-T/milk. Cell Signaling Technology: phospho-AKT473, AKT Total, phospho-ERK1/2, ERK Total, cleavage caspase-3. Santa Cruz Antibodies: NF-κB p50 subunit, NF-κB p65 subunit, and beta actin. Calbiochem: 4-HNE antibody. Blots were washed 3 times (5 minutes each) with TBS, and incubated with secondary antibodies for 2 hours. Invitrogen: goat anti-rabbit or goat anti-mouse. Blots were washed 3 times (5 minutes each) with TBS, and incubated for 1 minute in HRP detection solution (Amersham). Films were exposed to blots and developed (SRX-101A, Konica Minolta Medical & Graphic Inc.). Re-probed blots (e.g. beta actin, AKT total, ERK total) were stripped in western blot stripping buffer (Fischer Scientific) for 10 minutes, washed once with TBS, re-blocked in TBS-T/milk for 1 hour, and incubated overnight with new primary antibody. Films were scanned (EPSON GT 20,000), and densitometry performed using UN-SCAN-IT software (Silk Scientific).

PI3K = conditions: studies in cancer cells; cited from earlier work

Which results are given for CN[C@@H]1C[C@H]2O[C@@](C)([C@@H]1OC)n1c3ccccc3c3c4c(c5c6ccccc6n2c5c31)C(=O)NC4 [STS, staurosporine, reference compound]?
cytotoxicity at 24 h, 250 nM (in vitro): 81.1%; decrease in neuronal viability ([1]; 250 nM STS alone, 24 h): 71.5%

With O=C1c2c(O)cccc2C([C@@H]2O[C@H](CO)[C@@H](O)[C@H](O)[C@H]2O)c2cc(CO)cc(O)c21 (some centres unmarked) [aloin] as the compound, how does the “neuronal death after H2O2 injury” value ([2]; post-treatment, any concentration tested, 24 hours post-injury) read?
The value was “ineffective at any concentration tested”.

What does the source list for Cc1cc(O)c2c(c1)C(=O)c1cc(O)cc(O)c1C2=O [emodin, 6-methyl-1,3,8-trihydroxyanthraquinone]?
activity of recombinant caspase-3 [3]: not a direct caspase inhibitor in the cell-free assay; pAKT473 (AKT): abolished baseline and injury induced AKT activation; IC50 (PI3K): 3.3 µM; neuronal death after H2O2 injury ([2]; post-treatment 5 μM, 24 h): failed to protect neurons; neuronal death after H2O2 injury ([2]; post-treatment 25 μM, 24 h): failed to protect neurons; neuronal death after H2O2 injury ([2]; post-treatment 50 μM, 24 h): exacerbated cell death

With ZVAD-fmk [reference compound] as the compound, how does the “activity of recombinant caspase-3” value [3] read?
The value was “significantly reduced the activity of recombinant caspase-3”.

What about the “cell viability, comparison of neuroprotectants” value ([1]; 250 nM STS co-administered 24 hours) of the same compound?
The value was “increased cell viability”.
